# Species: Rattus norvegicus
# Assay: DrugMatrix - Regimen: Daily Repeat
# Type: toxicity, organism-based, Sprague-Dawley
# Set-up: regimen Daily Repeat, gender Male, age 6-8 weeks
# Details: in vivo, po, […], route oral GAVAGE; for ABSOLUTE BASOPHIL / ABSOLUTE EOSINOPHIL / ABSOLUTE LYMPHOCYTE / ABSOLUTE MONOCYTE / ABSOLUTE SEGMENTED NEUTROPHIL / BASOPHIL / EOSINOPHIL / ERYTHROCYTE COUNT / HEMATOCRIT / HEMOGLOBIN / LEUKOCYTE COUNT / LYMPHOCYTE / MEAN CORPUSCULAR HEMOGLOBIN / MEAN CORPUSCULAR HEMOGLOBIN CONCENTRATION / MEAN CORPUSCULAR VOLUME / MONOCYTE / NEUTROPHIL / NUCLEATED RED BLOOD CELLS / PLATELET COUNT: tissue Blood; for ALANINE AMINOTRANSFERASE / ALKALINE PHOSPHATASE / ASPARTATE AMINOTRANSFERASE / BLOOD UREA NITROGEN / CARBON DIOXIDE / CHLORIDE / CHOLESTEROL / CREATINE PHOSPHOKINASE / CREATININE / GLUCOSE / LACTATE DEHYDROGENASE / LIPASE / PHOSPHORUS / POTASSIUM / SODIUM / TOTAL BILIRUBIN / TOTAL PROTEIN / URIC ACID: tissue Plasma
# [1] = 100 mg/kg, dose level Low, time 7 day
# [2] = 700 mg/kg, 72 h, dose level High, time 3 day
# [3] = 700 mg/kg, dose level High, time 7 day
smiles,measurement,setting,value
Cc1ccc(C)c(OCCCC(C)(C)C(=O)O)c1 [GEMFIBROZIL],ABSOLUTE BASOPHIL,[1],0 CELLS/uL
same,ABSOLUTE EOSINOPHIL,[1],45.5 CELLS/uL
same,ABSOLUTE LYMPHOCYTE,[1],9460.33 CELLS/uL
same,ABSOLUTE MONOCYTE,[1],128.67 CELLS/uL
same,ABSOLUTE SEGMENTED NEUTROPHIL,[1],965.5 CELLS/uL
same,BASOPHIL,[1],0%
same,EOSINOPHIL,[1],0.5%
same,ERYTHROCYTE COUNT,[1],5.75 x10E6/uL
same,HEMATOCRIT,[1],35.7%
same,HEMOGLOBIN,[1],13.7 G/DL
same,LEUKOCYTE COUNT,[1],10.6 x10E3/uL
same,LYMPHOCYTE,[1],89.83%
same,MEAN CORPUSCULAR HEMOGLOBIN,[1],23.82 pg
same,MEAN CORPUSCULAR HEMOGLOBIN CONCENTRATION,[1],38.42 G/DL
same,MEAN CORPUSCULAR VOLUME,[1],62.1 fL
same,MONOCYTE,[1],1.17%
same,NEUTROPHIL,[1],8.5%
same,NUCLEATED RED BLOOD CELLS,[1],0 /100WBC
same,PLATELET COUNT,[1],1237.17 x10E3/uL
same,ALANINE AMINOTRANSFERASE,[1],75.17 u/L
same,ALKALINE PHOSPHATASE,[1],388.67 u/L
same,ASPARTATE AMINOTRANSFERASE,[1],80.67 u/L
same,BLOOD UREA NITROGEN,[1],15.5 mg/dL
same,CARBON DIOXIDE,[1],29.17 mmol/L
same,CHLORIDE,[1],103.5 MEQ/L
same,CHOLESTEROL,[1],70.33 mg/dL
same,CREATINE PHOSPHOKINASE,[1],220 u/L
same,CREATININE,[1],0.26 mg/dL
same,GLUCOSE,[1],138.5 mg/dL
same,LACTATE DEHYDROGENASE,[1],151.33 u/L
same,LIPASE,[1],11.5 u/L
same,PHOSPHORUS,[1],10.83 mg/dL
same,POTASSIUM,[1],6.07 MEQ/L
same,SODIUM,[1],145.42 MEQ/L
same,TOTAL BILIRUBIN,[1],0.15 mg/dL
same,TOTAL PROTEIN,[1],6.55 G/DL
same,URIC ACID,[1],0.9 mg/dL
same,ABSOLUTE BASOPHIL,[2],0 CELLS/uL
same,ABSOLUTE EOSINOPHIL,[2],123.83 CELLS/uL
same,ABSOLUTE LYMPHOCYTE,[2],14360.17 CELLS/uL
same,ABSOLUTE MONOCYTE,[2],300 CELLS/uL
same,ABSOLUTE SEGMENTED NEUTROPHIL,[2],899.33 CELLS/uL
same,BASOPHIL,[2],0%
same,EOSINOPHIL,[2],0.83%
same,ERYTHROCYTE COUNT,[2],5.5 x10E6/uL
same,HEMATOCRIT,[2],34.9%
same,HEMOGLOBIN,[2],13.82 G/DL
same,LEUKOCYTE COUNT,[2],15.68 x10E3/uL
same,LYMPHOCYTE,[2],91.67%
same,MEAN CORPUSCULAR HEMOGLOBIN,[2],25.13 pg
same,MEAN CORPUSCULAR HEMOGLOBIN CONCENTRATION,[2],39.6 G/DL
same,MEAN CORPUSCULAR VOLUME,[2],63.5 fL
same,MONOCYTE,[2],1.83%
same,NEUTROPHIL,[2],5.67%
same,NUCLEATED RED BLOOD CELLS,[2],0 /100WBC
same,PLATELET COUNT,[2],1197.17 x10E3/uL
same,ALANINE AMINOTRANSFERASE,[2],74.67 u/L
same,ALKALINE PHOSPHATASE,[2],606 u/L
same,ASPARTATE AMINOTRANSFERASE,[2],80.5 u/L
same,BLOOD UREA NITROGEN,[2],11.33 mg/dL
same,CARBON DIOXIDE,[2],30.67 mmol/L
same,CHLORIDE,[2],101.5 MEQ/L
same,CHOLESTEROL,[2],61 mg/dL
same,CREATINE PHOSPHOKINASE,[2],247.5 u/L
same,CREATININE,[2],0.21 mg/dL
same,GLUCOSE,[2],143.5 mg/dL
same,LACTATE DEHYDROGENASE,[2],254.17 u/L
same,LIPASE,[2],9.67 u/L
same,PHOSPHORUS,[2],8.5 mg/dL
same,POTASSIUM,[2],6.29 MEQ/L
same,SODIUM,[2],141.78 MEQ/L
same,TOTAL BILIRUBIN,[2],0.32 mg/dL
same,TOTAL PROTEIN,[2],5.85 G/DL
same,URIC ACID,[2],1.33 mg/dL
same,ABSOLUTE BASOPHIL,[3],0 CELLS/uL
same,ABSOLUTE EOSINOPHIL,[3],34.5 CELLS/uL
same,ABSOLUTE LYMPHOCYTE,[3],11212.67 CELLS/uL
same,ABSOLUTE MONOCYTE,[3],304.17 CELLS/uL
same,ABSOLUTE SEGMENTED NEUTROPHIL,[3],1732 CELLS/uL
same,BASOPHIL,[3],0%
same,EOSINOPHIL,[3],0.5%
same,ERYTHROCYTE COUNT,[3],5.46 x10E6/uL
same,HEMATOCRIT,[3],32.9%
same,HEMOGLOBIN,[3],12.75 G/DL
same,LEUKOCYTE COUNT,[3],13.28 x10E3/uL
same,LYMPHOCYTE,[3],85.5%
same,MEAN CORPUSCULAR HEMOGLOBIN,[3],23.43 pg
same,MEAN CORPUSCULAR HEMOGLOBIN CONCENTRATION,[3],38.82 G/DL
same,MEAN CORPUSCULAR VOLUME,[3],60.37 fL
same,MONOCYTE,[3],2.17%
same,NEUTROPHIL,[3],11.83%
same,NUCLEATED RED BLOOD CELLS,[3],0 /100WBC
same,PLATELET COUNT,[3],1336.17 x10E3/uL
same,ALANINE AMINOTRANSFERASE,[3],90.83 u/L
same,ALKALINE PHOSPHATASE,[3],504.17 u/L
same,ASPARTATE AMINOTRANSFERASE,[3],94.83 u/L
same,BLOOD UREA NITROGEN,[3],12.17 mg/dL
same,CARBON DIOXIDE,[3],31.17 mmol/L
same,CHLORIDE,[3],101.17 MEQ/L
same,CHOLESTEROL,[3],60.5 mg/dL
same,CREATINE PHOSPHOKINASE,[3],391.67 u/L
same,CREATININE,[3],0.29 mg/dL
same,GLUCOSE,[3],135.67 mg/dL
same,LACTATE DEHYDROGENASE,[3],275.5 u/L
same,LIPASE,[3],12 u/L
same,PHOSPHORUS,[3],9.5 mg/dL
same,POTASSIUM,[3],5.98 MEQ/L
same,SODIUM,[3],142.85 MEQ/L
same,TOTAL BILIRUBIN,[3],0.22 mg/dL
same,TOTAL PROTEIN,[3],6.58 G/DL
same,URIC ACID,[3],0.87 mg/dL

# Source: ChEMBL document CHEMBL3885881, “DrugMatrix”
